According to ChEMBL document CHEMBL1921738, “A small molecule that preferentially binds the closed conformation of Hsp90” (Bioorg Med Chem Lett, 2011):
Active and inactive are the calls of the source. No cut-off for these calls is given here. Side chains are listed from the residue outwards. Peptide text beside a SMILES is read from it. * marks the point of attachment. Biotin = O=C1N[C@H]2[C@H](CS[C@H]2CCCCC(=O)*)N1; PEG4 = NCCOCCOCCOCCOCCC(=O)O

How the values were obtained:
[1] = target: T1, Heat shock protein HSP 90-beta (Homo sapiens, UniProt P08238); assay: Binding affinity to human Hsp90 closed state by fluorescence polarization anisotropy
[2] = Binding affinity to Saccharomyces cerevisiae Hsc82 open apo state by fluorescence polarization anisotropy method
[3] = Binding affinity to Saccharomyces cerevisiae Hsc82 closed state by fluorescence polarization anisotropy method in presence of non-hydrolyzable ATP analog AMPPNP
Jurkat = assay: Cytotoxicity against human Jurkat T-lymphoblastoid leukemia cells after 24 to 48 hrs by MTS assay; format: cell-based
[4] = target: T1, Heat shock protein HSP 90-beta; assay: Binding affinity to Hsp90 after 1 hrs by Western blotting
[5] = target: T1, Heat shock protein HSP 90-beta; assay: Binding affinity to human Hsp90 open state by fluorescence polarization anisotropy

T1 sequence (P08238 whole entry): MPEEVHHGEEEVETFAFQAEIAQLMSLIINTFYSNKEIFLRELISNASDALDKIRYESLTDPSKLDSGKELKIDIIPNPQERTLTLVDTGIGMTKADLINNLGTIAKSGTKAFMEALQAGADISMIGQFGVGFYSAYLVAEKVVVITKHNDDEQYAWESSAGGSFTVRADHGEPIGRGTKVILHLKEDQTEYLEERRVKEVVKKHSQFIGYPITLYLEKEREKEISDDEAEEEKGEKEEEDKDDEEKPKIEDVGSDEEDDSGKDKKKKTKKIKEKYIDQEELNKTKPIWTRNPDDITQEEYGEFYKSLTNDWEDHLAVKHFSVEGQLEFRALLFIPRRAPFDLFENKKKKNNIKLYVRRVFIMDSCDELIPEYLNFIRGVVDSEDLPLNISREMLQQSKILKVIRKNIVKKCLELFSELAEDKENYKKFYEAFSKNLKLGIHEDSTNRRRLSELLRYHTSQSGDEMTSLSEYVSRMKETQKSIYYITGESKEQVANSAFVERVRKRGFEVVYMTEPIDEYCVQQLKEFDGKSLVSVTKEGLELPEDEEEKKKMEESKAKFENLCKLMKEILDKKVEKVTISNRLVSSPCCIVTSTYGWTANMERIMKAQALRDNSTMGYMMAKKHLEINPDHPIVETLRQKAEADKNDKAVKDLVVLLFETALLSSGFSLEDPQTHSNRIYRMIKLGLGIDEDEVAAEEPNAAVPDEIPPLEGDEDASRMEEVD

| Structure (SMILES) | Kd [2] [µM] | Kd [3] [µM] | further results |
| --- | --- | --- | --- |
| CC(C)C[C@@H]1NC(=O)[C@H](Cc2ccccc2)NC(=O)[C@H](CC(C)C)NC(=O)[C@H](C(C)C)NC(=O)[C@H](CC(C)C)NC1=O (cyclo(FLLVL)) | – | – | Kd [1]: 100 µM |
| CC(C)C[C@@H]1NC(=O)[C@H](CCCCNC(=O)OCc2ccccc2)NC(=O)[C@H](CCCCNC(=O)c2ccc(C(=O)O)c(-c3c4ccc(=O)cc-4oc4cc(O)ccc34)c2)NC(=O)[C@@H](Cc2ccccc2)N(C)C(=O)[C@H](C(C)C)NC1=O | 180 | 120 | – |
| CO[C@@H]1[C@@H](OC(N)=O)[C@@H](O)[C@H](Oc2ccc3c(O)c(NC(=O)c4ccc(O)c(CC=C(C)C)c4)c(=O)oc3c2C)OC1(C)C [NOVOBIOCIN] | – | – | Activity (Jurkat): 700 µM |
| CC(C)C[C@@H]1NC(=O)[C@H](Cc2ccccc2)NC(=O)[C@H](CC(C)C)NC(=O)[C@H](C(C)C)NC(=O)[C@H](CCCCNC(=O)CCOCCOCCOCCOCCNC(=O)CCCC[C@@H]2SC[C@@H]3NC(=O)N[C@@H]32)NC1=O (cyclo(FLK([PEG4-Biotin])VL)) | – | – | Kd [4]: 20 µM |
| CC(C)C[C@@H]1NC(=O)[C@H](CCCCNC(=O)OCc2ccccc2)NC(=O)[C@H](Cc2ccccc2)NC(=O)[C@@H](Cc2ccccc2)N(C)C(=O)[C@H](C(C)C)NC1=O | – | – | Activity [5]: Active; Activity [1]: Active |

The next lines start with results.

| Kd [2] [µM] | Kd [3] [µM] | Structure (SMILES) | further results |
| --- | --- | --- | --- |
| 57 | 27 | CC(C)C[C@@H]1NC(=O)[C@H](CCCCNC(=O)OCc2ccccc2)NC(=O)[C@H](Cc2ccccc2)NC(=O)[C@@H](Cc2ccccc2)N(C)C(=O)[C@H](CCCCNC(=O)c2ccc(C(=O)O)c(-c3c4ccc(=O)cc-4oc4cc(O)ccc34)c2)NC1=O | – |
| 103 | 55 | CC(C)[C@@H]1NC(=O)[C@H](CCCCNC(=O)c2ccc(C(=O)O)c(-c3c4ccc(=O)cc-4oc4cc(O)ccc34)c2)NC(=O)[C@H](CCCCNC(=O)OCc2ccccc2)NC(=O)[C@H](Cc2ccccc2)NC(=O)[C@@H](Cc2ccccc2)N(C)C1=O | – |
